System: Mayo PDX cells
Experiment: Matrigel invasion assay
Format: cell-based, human
Description: Invasion status of cells was tested with Matrigel Boyden chamber assays (Fisher). 1×10^5 cells were plated on BD BioCoat Matrigel invasion chambers. 24 hours after treatment with drugs, invaded cells were stained with the HEMA-3 kit (Fisher). Invaded cells were counted in 4-5 random fields.
An equal number of cells (5×10^4) were seeded on Matrigel coated inserts, and were untreated (control vehicle) or stimulated with 50 ng/ml EGF for 24 hours, cells invading to the other side of the membrane were counted and presented as percentage cell invasion. […] A similar invasion assay was conducted on GBM26 cells (FIG. 2D). […] Cells were transfected with EGFR or scrambled siRNA for 48 hours before the invasion assay. A similar invasion assay was performed on GBM6 (FIG. 2G). […] Cells were transiently transfected with empty or EGFR wildtype (EGFRwt) overexpressing vector, and invasion assay was performed after 48 hours after transfection. […] Cells were treated with or without 50 ng/ml EGF for 48 hours before the assay. The Western blot images are representative of three independent biological replicates. Actin served as loading control. Data are represented as mean±SEM from three independent experiments. *P<0.05, **P<0.01, n.s. not significant, unpaired two-tailed Student's t-test.
FIG. 3C and FIG. 3D show the results of a Matrigel invasion assay of EGFR siRNA knockdown in GBM12 and GBM6 in response to EGF. Cells were treated with EGFR or scrambled siRNA for 48 hours, transfected cells were seeded on Matrigel coated inserts and were treated with or without 50 ng/ml EGF for 24 hours. […] Cells were transiently transfected with EGFRvIII expression or empty vector, invasion assay was performed 48 hours after transfection. […] Western blot images are representative of three independent biological replicates. Actin served as a loading control. Data are represented as mean±SEM from three independent experiments. […], **P<0.01, ***P<0.001, n.s. not significant, unpaired two-tailed t-test.

## C#Cc1cccc(Nc2ncnc3cc(OCCOC)c(OCCOC)cc23)c1 [erlotinib, Erlotinib]
Erlotinib 1 μM, 24 hours, GBM12, GBM26
  cell invasion: suppressed the invasiveness
erlotinib, 48 h
  cell invasion: returns to baseline

Source: US20230075368A1, “IDENTIFICATION OF AN EGFR-BIN3 PATHWAY THAT ACTIVELY SUPPRESSES INVASION AND REDUCES TUMOR SIZE IN GLIOBLASTOMA” (The United States Govemment as represented by the …, priority 2020, published 2023)
